The values below come from publication PMC6522510 (Nature Communications, 2019).

Test systems include M07e; CMS; U937; CHRF288-11; MV4-11; MOLM-13; CMK; ML-2.
Parameters in all cases: species or system AML cell lines (8); Primary HTS, single concentration about 10 uM, Cell Titer Glo viability; log10 luminescence, per cent inhibition relative to cycloheximide control
What all share (details): 72 h, relative to cycloheximide control, log10 luminescence, inhibitor

The structures appear in SMILES notation. Structures can show the parent of a compound that is named as a salt. Where two headings read alike, the source gives them in different places.

`COc1cccc(C2=C(c3cn(C)c4ccccc34)C(=O)NC2=O)c1` [SJ000581051-1]: in the experiment on M07e, the M07e %inh was 5.285%. Further, the CMS %inh with CMS was found to be 3.466%. Also, the U937 %inh in the experiment on U937 is listed as -2.854%. In addition, the CHRF288-11 %inh with CHRF288-11 is given as 11.8%. For the same molecule, the MV4-11 %inh in the experiment with MV4-11 stood at 1.602%. In the experiment on MOLM-13, the MOLM-13 %inh is 1.318%. In the experiment on CMK, the CMK %inh is recorded as -3.208%. Besides, in the experiment with ML-2, the ML-2 %inh was -0.8075%.

Turning to `O=C1Nc2ccccc2C1=C1CCc2cc(O)ccc21` [SJ000573309-1, C1338/186/2], in the experiment with M07e, the M07e %inh came to 0.9027%. Moreover, in the experiment with CMS, the CMS %inh is on record as 4.291%. In addition, the U937 %inh in the experiment on U937 is given as 12.06%. Further, the CHRF288-11 %inh in the experiment on CHRF288-11 came out at 18.33%. In addition, the MV4-11 %inh in the experiment with MV4-11 stood at 57.39%. Moreover, the MOLM-13 %inh with MOLM-13 is 102.5%. For the same molecule, the CMK %inh in the experiment with CMK was 25.36%. Also, in the experiment on ML-2, the ML-2 %inh came to 4.662%.

On to `Cn1c(=O)c(Oc2ccc(F)cc2)cc2cnc(NC3CCOCC3)nc21` [SJ000580972-1], for which, in the experiment on M07e, the M07e %inh came out at 1.712%. Moreover, the CMS %inh in the experiment on CMS is listed as 3.35%. Moreover, the U937 %inh with U937 is 2.684%. In addition, in the experiment on CHRF288-11, the CHRF288-11 %inh is given as 0.05441%. In addition, the MV4-11 %inh in the experiment with MV4-11 is -1.036%. Further, the MOLM-13 %inh in the experiment with MOLM-13 is on record as -0.3408%. The CMK %inh with CMK was 4.681%. In the experiment with ML-2, the ML-2 %inh is -0.6256%.

As for `C[C@H]1O[C@@H](O[C@H]2[C@@H](O)C[C@H](O[C@H]3[C@@H](O)C[C@H](O[C@H]4CC[C@@]5(C)[C@H](CC[C@@H]6[C@@H]5CC[C@]5(C)[C@@H](C7=CC(=O)OC7)CC[C@]65O)C4)O[C@@H]3C)O[C@@H]2C)C[C@H](O)[C@@H]1O` [SJ000285233-4, DIGITOXIN], in the experiment with M07e (M07e %inh, 10 µM), the M07e %inh amounted to 114.3%. The CMS %inh in the experiment with CMS (CMS %inh, 10 µM) is reported as 96.1%. Moreover, the U937 %inh in the experiment on U937 (U937 %inh, 10 µM) is recorded as 77.98%. Moreover, the CHRF288-11 %inh with CHRF288-11 (CHRF288-11 %inh, 10 µM) was 102.9%. In addition, in the experiment on MV4-11 (MV4-11 %inh, 10 µM), the MV4-11 %inh is 82.27%. Moreover, the MOLM-13 %inh with MOLM-13 (MOLM-13 %inh, 10 µM) worked out at 81.14%. Besides, the CMK %inh in the experiment on CMK (CMK %inh, 10 µM) came out at 102%. In addition, the ML-2 %inh in the experiment on ML-2 (ML-2 %inh, 10 µM) was found to be 57.88%.

As to `CNC(=O)c1cncc(/C=C/c2c(Cl)cccc2Cl)c1` [SJ000573258-1, U12068/57/2], the M07e %inh in the experiment with M07e was found to be 7.169%. Also, the CMS %inh in the experiment on CMS was 3.911%. The U937 %inh in the experiment on U937 was found to be 3.831%. Besides, in the experiment on CHRF288-11, the CHRF288-11 %inh is given as -0.5271%. The MV4-11 %inh with MV4-11 is 3.453%. Besides, the MOLM-13 %inh in the experiment on MOLM-13 is given as 2.751%. Also, the CMK %inh in the experiment on CMK stood at 4.903%. The ML-2 %inh in the experiment with ML-2 is -0.3801%.

Take `c1cc(-c2cnn3nc(N4CCOCC4)ccc23)nc(NC2CC2)n1` [SJ000573092-1, U17157/98/7]: the M07e %inh in the experiment on M07e came to 1.021%. Moreover, in the experiment with CMS, the CMS %inh is listed as -2.802%. The U937 %inh with U937 was 4.896%. Also, the CHRF288-11 %inh in the experiment on CHRF288-11 was -0.2849%. The MV4-11 %inh in the experiment on MV4-11 was 16.51%. For the same molecule, in the experiment with MOLM-13, the MOLM-13 %inh is 12.47%. In the experiment with CMK, the CMK %inh was -4.251%. Besides, the ML-2 %inh in the experiment with ML-2 turned out to be 1.098%.

Regarding `COc1cccc(-n2ncc3c(N/N=C/c4ccc(F)cc4)ncnc32)c1` [SJ000573219-1, U18028/188/1], in the experiment on M07e, the M07e %inh is given as 4.179%. In addition, in the experiment on CMS, the CMS %inh turned out to be 1.318%. In the experiment with U937, the U937 %inh was -0.8072%. Moreover, the CHRF288-11 %inh in the experiment with CHRF288-11 is reported as -1.076%. In the experiment on MV4-11, the MV4-11 %inh is -2.52%. Further, in the experiment on MOLM-13, the MOLM-13 %inh was 0.1437%. In the experiment on CMK, the CMK %inh is on record as -2.994%. Further, the ML-2 %inh in the experiment with ML-2 is recorded as 1.489%.

Consider `CC1=C(C(=O)Nc2ccc3[nH]nc(C)c3c2)C(c2ccc(C(F)(F)F)cc2)CC(=O)N1` (centres unmarked) [SJ000573169-1, SD204573-190A1], for which the M07e %inh with M07e is 28.71%. In addition, the CMS %inh in the experiment on CMS came out at 35.88%. The U937 %inh in the experiment with U937 turned out to be 19.8%. In the experiment on CHRF288-11, the CHRF288-11 %inh is 46.87%. Moreover, the MV4-11 %inh in the experiment with MV4-11 is on record as 29.81%. For the same molecule, in the experiment on MOLM-13, the MOLM-13 %inh is given as 15.8%. Besides, in the experiment on CMK, the CMK %inh is reported as 106.1%. Moreover, the ML-2 %inh in the experiment with ML-2 was 13.81%.

With `Cc1cc(O)cc(C)c1/C=C/c1cncc(C(=O)OC(C)(C)C)c1` [SJ000573091-1, U11962/36/1], the M07e %inh with M07e is -1.025%. For the same molecule, the CMS %inh in the experiment with CMS was -1.844%. For the same molecule, in the experiment on U937, the U937 %inh is -1.9%. Also, the CHRF288-11 %inh in the experiment with CHRF288-11 is -1.68%. The MV4-11 %inh in the experiment with MV4-11 was determined as 1.728%. Moreover, the MOLM-13 %inh in the experiment with MOLM-13 is 2.429%. For the same molecule, in the experiment with CMK, the CMK %inh was determined as 2.193%. Moreover, in the experiment on ML-2, the ML-2 %inh was -0.1273%.

As for `Cn1c(=O)c(Cc2ccc(F)cc2F)cc2cnc(NC3CCOCC3)nc21` [SJ000581032-1], in the experiment on M07e, the M07e %inh is given as 1.669%. Also, the CMS %inh in the experiment on CMS came to 0.5188%. For the same molecule, the U937 %inh in the experiment on U937 is listed as -0.7764%. Further, in the experiment on CHRF288-11, the CHRF288-11 %inh is reported as -3.947%. In the experiment with MV4-11, the MV4-11 %inh amounted to 0.6569%. In addition, the MOLM-13 %inh with MOLM-13 came to 4.514%. Besides, in the experiment on CMK, the CMK %inh came to 3.89%. Besides, the ML-2 %inh with ML-2 is listed as 0.882%.

Regarding `COc1cccc(-n2ncc3c(N/N=C/c4cccc(F)c4)ncnc32)c1` [SJ000573217-1, U18028/186/1], in the experiment with M07e, the M07e %inh is -2.637%. Also, the CMS %inh in the experiment on CMS is recorded as 0.08051%. The U937 %inh in the experiment on U937 is reported as -3.323%. Besides, in the experiment on CHRF288-11, the CHRF288-11 %inh is reported as -0.7991%. Further, the MV4-11 %inh with MV4-11 is -3.164%. Further, in the experiment on MOLM-13, the MOLM-13 %inh is on record as -3.305%. In addition, the CMK %inh in the experiment with CMK is listed as -7.034%. In addition, the ML-2 %inh in the experiment with ML-2 came out at 0.8639%.

`COc1cc[nH]c1/C=C1\C(=O)Nc2ccc(F)c(I)c21` [SJ000581115-1]: the M07e %inh in the experiment on M07e turned out to be 4.603%. Further, the CMS %inh with CMS was determined as 4.321%. The U937 %inh in the experiment with U937 was determined as 3.766%. Further, the CHRF288-11 %inh with CHRF288-11 is -1.945%. Moreover, the MV4-11 %inh in the experiment on MV4-11 was determined as 2.865%. Besides, the MOLM-13 %inh in the experiment with MOLM-13 was determined as 8.55%. In addition, in the experiment on CMK, the CMK %inh was -0.2359%. For the same molecule, the ML-2 %inh with ML-2 worked out at 0.5185%.

Take `O=C1NC(=NCC(CO)c2ccccc2)S/C1=C\c1ccc2ncccc2c1` (centres unmarked) [SJ000581063-1]: the M07e %inh with M07e was 4.562%. Besides, the CMS %inh with CMS is 4.364%. Further, in the experiment with U937, the U937 %inh is 16.39%. In addition, the CHRF288-11 %inh in the experiment on CHRF288-11 is recorded as 1.779%. Further, in the experiment with MV4-11, the MV4-11 %inh was determined as 53.98%. Further, in the experiment with MOLM-13, the MOLM-13 %inh came out at 2.415%. The CMK %inh in the experiment with CMK is -3.487%. Besides, in the experiment on ML-2, the ML-2 %inh stood at 3.168%.

With `CCCCc1ncc(/C=C(\Cc2cccs2)C(=O)O)n1Cc1ccc(C(=O)O)cc1` [SJ000556755-1, EPROSARTAN MESYLATE], the M07e %inh in the experiment on M07e was 2.786%. Also, the CMS %inh with CMS is recorded as 2.254%. Moreover, the U937 %inh with U937 came out at 2.452%. The CHRF288-11 %inh in the experiment on CHRF288-11 is on record as 1.693%. Also, the MV4-11 %inh with MV4-11 is recorded as -5.649%. The MOLM-13 %inh with MOLM-13 is recorded as -0.5594%. In addition, in the experiment with CMK, the CMK %inh turned out to be 1.513%. Also, in the experiment on ML-2, the ML-2 %inh is given as 1.173%.

On to `CO[C@H]1/C=C/O[C@@]2(C)Oc3c(C)c(O)c4c(O)c(c(/C=N/N5CCN(C6CCCC6)CC5)c(O)c4c3C2=O)NC(=O)/C(C)=C\C=C\[C@H](C)[C@H](O)[C@@H](C)[C@@H](O)[C@@H](C)[C@H](OC(C)=O)[C@@H]1C` [SJ000556738-2, RIFAPENTINE], for which the M07e %inh with M07e (M07e %inh, 10 µM) was 2.598%. Further, the CMS %inh in the experiment on CMS (CMS %inh, 10 µM) was found to be 24.93%. Moreover, the U937 %inh with U937 (U937 %inh, 10 µM) is reported as 26.01%. In the experiment on CHRF288-11 (CHRF288-11 %inh, 10 µM), the CHRF288-11 %inh is on record as -2.807%. Moreover, in the experiment with MV4-11 (MV4-11 %inh, 10 µM), the MV4-11 %inh was found to be 5.68%. For the same molecule, in the experiment with MOLM-13 (MOLM-13 %inh, 10 µM), the MOLM-13 %inh came to 7.481%. Moreover, the CMK %inh with CMK (CMK %inh, 10 µM) is listed as -1.103%. Further, in the experiment on ML-2 (ML-2 %inh, 10 µM), the ML-2 %inh was 7.469%.

On to `COc1ccc(O)c(C(=O)c2ccc(C(=O)O[C@@H]3CCCNC[C@H]3NC(=O)c3ccncc3)cc2)c1F` [SJ000580951-1], for which the M07e %inh in the experiment on M07e was found to be 15.86%. For the same molecule, the CMS %inh with CMS stood at 13.47%. In addition, the U937 %inh with U937 was found to be 74.66%. Also, in the experiment with CHRF288-11, the CHRF288-11 %inh is reported as 109.9%. For the same molecule, the MV4-11 %inh in the experiment with MV4-11 came to 68.34%. In the experiment on MOLM-13, the MOLM-13 %inh stood at 81.23%. Also, the CMK %inh in the experiment on CMK was found to be 131.3%. Besides, the ML-2 %inh with ML-2 was found to be 61.64%.
